Data published in PubChem BioAssay AID330 (DTP/NCI, 2004).
“And” between values parts separate entries of the source, which are not always exact repeats. Identical values can stand only once. Toxic doses and inconclusive results are not listed.

Tested on: P388 leukemia ip, CD2F1 mice, survival T/C
Assay: NCI In Vivo Anticancer Drug Screen. Data for tumor model P388 Leukemia (intraperitoneal) in CD2F1 (CDF1) mice
Settings: endpoint: median survival time, higher = longer survival
Summary of the method: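 Mice carrying the transplanted tumor received test compound or vehicle. Survival was recorded in each group, and the value is the treated-group measurement divided by that of the vehicle-treated control group.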

[1] = dose: 50.0 mg/kg/injection, schedule: Q01DX009 (ip), vehicle: saline with Tween-80
[2] = dose: 100.0 mg/kg/injection, schedule: Q01DX009 (ip), vehicle: saline with Tween-80
[3] = dose: 200.0 mg/kg/injection, schedule: Q01DX009 (ip), vehicle: saline with Tween-80
[4] = dose: 6.25 mg/kg/injection, schedule: Q01DX005 (ip), vehicle: saline with Tween-80
[5] = dose: 12.5 mg/kg/injection, schedule: Q01DX005 (ip), vehicle: saline with Tween-80
[6] = dose: 25.0 mg/kg/injection, schedule: Q01DX005 (ip), vehicle: saline with Tween-80
[7] = dose: 60.0 mg/kg/injection, schedule: Q01DX005 (ip), vehicle: saline with Tween-80
[8] = dose: 120.0 mg/kg/injection, schedule: Q01DX005 (ip), vehicle: saline with Tween-80
[9] = dose: 240.0 mg/kg/injection, schedule: Q01DX005 (ip), vehicle: saline with Tween-80
[10] = dose: 25.0 mg/kg/injection, schedule: Q01DX009 (ip), vehicle: saline with Tween-80
[11] = dose: 50.0 mg/kg/injection, schedule: Q01DX005 (ip), vehicle: saline with Tween-80
[12] = dose: 100.0 mg/kg/injection, schedule: Q01DX005 (ip), vehicle: saline with Tween-80
[13] = dose: 200.0 mg/kg/injection, schedule: Q01DX005 (ip), vehicle: saline with Tween-80
[14] = dose: 50.0 mg/kg/injection, schedule: Q01DX005 (ip), vehicle: Klucel (hydroxypropylcellulose) (HPC)
[15] = dose: 100.0 mg/kg/injection, schedule: Q01DX005 (ip), vehicle: Klucel (hydroxypropylcellulose) (HPC)
[16] = dose: 200.0 mg/kg/injection, schedule: Q01DX005 (ip), vehicle: Klucel (hydroxypropylcellulose) (HPC)

With `O=[N+]([O-])c1ccc(SCN2CCCCC2)cc1` the T/C [1] was 104 % of control, the T/C [2] was 104 % of control and the T/C [3] was 118 % of control.

`O=C(O)CC[n+]1cccc2c1C(=O)C(=O)c1ncccc1-2` was tested, and the T/C (dose: 100.0 mg/kg/injection, schedule: Q04DX002 (ip), vehicle: saline) was 114 % of control and the T/C (dose: 200.0 mg/kg/injection, schedule: Q04DX002 (ip), vehicle: saline) was 107 % of control.

`CC1CN1S(=O)(=O)N1CC1C` (stereo not given) was tested, and the T/C (dose: 11.0 mg/kg/injection, schedule: Q04DX003 (ip), vehicle: saline with Tween-80) was 110 % of control, the T/C (dose: 16.5 mg/kg/injection, schedule: Q04DX003 (ip), vehicle: saline with Tween-80) was 155 % of control and the T/C (dose: 20.0 mg/kg/injection, schedule: Q01DX009 (ip), vehicle: saline with Tween-80) was 209 % of control. For the same molecule, the T/C (dose: 25.0 mg/kg/injection, schedule: Q04DX003 (ip), vehicle: saline with Tween-80) was 195 % of control, the T/C (dose: 37.5 mg/kg/injection, schedule: Q04DX003 (ip), vehicle: saline with Tween-80) was 270 % of control and the T/C (dose: 40.0 mg/kg/injection, schedule: Q01DX009 (ip), vehicle: saline with Tween-80) was 172 % of control.

For `CCC1(O)C(=O)OCc2c1cc1n(c2=O)Cc2ccccc2-1` (stereo not given), the T/C (dose: 100.0 mg/kg/injection, schedule: Q01DX001 (ip), vehicle: saline with Tween-80) was 96 % of control, the T/C (dose: 200.0 mg/kg/injection, schedule: Q01DX001 (ip), vehicle: saline with Tween-80) was 90 % of control and the T/C (dose: 400.0 mg/kg/injection, schedule: Q01DX001 (ip), vehicle: saline with Tween-80) was 92 % of control.

With `CCN(CC)CCNc1ccc(COC(=O)OC)c2oc3ccccc3c(=O)c12` the T/C [4] was 115 % of control, the T/C [5] was 111 % of control and the T/C [6] was 97 % of control.

With `CCOC(=O)C1CSC(c2ccccc2)=N1` (stereo not given) the T/C [7] was 109 % of control, the T/C [8] was 111 % of control and the T/C [9] was 111 % of control.

With `CCC1(CC)COC(C)(C(=O)O)OC1` the T/C [10] was 102 % of control, the T/C [1] was 102 % of control and the T/C [2] was 94 % of control. For the same molecule, the T/C [3] was 96 % of control.

`CNC(=S)N/N=C(C)/C=C/c1ccc(OC)cc1` was tested, and the T/C (dose: 100.0 mg/kg/injection, schedule: Q04DX002 (ip), vehicle: Klucel (hydroxypropylcellulose) (HPC)) was 104 % of control, the T/C (dose: 200.0 mg/kg/injection, schedule: Q04DX002 (ip), vehicle: Klucel (hydroxypropylcellulose) (HPC)) was 100 % of control and the T/C (dose: 400.0 mg/kg/injection, schedule: Q04DX002 (ip), vehicle: Klucel (hydroxypropylcellulose) (HPC)) was 91 % of control.

`CN1CCC(CC2CCCCN2)CC1` (stereo not given) was tested, and the T/C (dose: 6.25 mg/kg/injection, schedule: Q01DX009 (ip), vehicle: distilled water + Tween-80) was 99 % of control, the T/C (dose: 12.5 mg/kg/injection, schedule: Q01DX009 (ip), vehicle: distilled water + Tween-80) was 105 % of control and 95 % of control and the T/C (dose: 25.0 mg/kg/injection, schedule: Q01DX009 (ip), vehicle: distilled water + Tween-80) was 98 % of control and 122 % of control. The T/C (dose: 50.0 mg/kg/injection, schedule: Q01DX009 (ip), vehicle: distilled water + Tween-80) was 108 % of control and 116 % of control and the T/C (dose: 100.0 mg/kg/injection, schedule: Q01DX009 (ip), vehicle: distilled water + Tween-80) was 103 % of control.

`CCC1(CCC(=O)OC)CCC[N+]2=C1c1[nH]c3ccc(Br)cc3c1CC2` (stereo not given) was tested, and the T/C [4] was 97 % of control, the T/C [5] was 100 % of control and the T/C [6] was 94 % of control. The T/C (dose: 50.0 mg/kg/injection, schedule: Q01DX005 (ip), vehicle: saline) was 86 % of control.

In the case of `CC(=O)N/N=C/C(C)(C)C(C)(C)/C=N/NC(C)=O`, the T/C (dose: 120.0 mg/kg/injection, schedule: Q01DX005 (ip), vehicle: Klucel (hydroxypropylcellulose) (HPC)) is reported as 153 % of control.

`CC1(C)CCCC2(C)C1CCC13OC1(C=O)C(C=O)=CCC23` (stereo not given) was tested, and the T/C (dose: 1.25 mg/kg/injection, schedule: Q01DX005 (ip), vehicle: saline + alcohol) was 99 % of control, the T/C (dose: 2.5 mg/kg/injection, schedule: Q01DX005 (ip), vehicle: saline + alcohol) was 98 % of control and the T/C (dose: 5.0 mg/kg/injection, schedule: Q01DX005 (ip), vehicle: saline + alcohol) was 99 % of control. The T/C (dose: 10.0 mg/kg/injection, schedule: Q01DX005 (ip), vehicle: saline + alcohol) was 99 % of control and the T/C (dose: 20.0 mg/kg/injection, schedule: Q01DX005 (ip), vehicle: saline + alcohol) was 104 % of control.

`O=C(O)c1ncc2ncccc2c1O` was tested, and the T/C (dose: 50.0 mg/kg/injection, schedule: Q01DX009 (ip), vehicle: saline) was 107 % of control, the T/C (dose: 100.0 mg/kg/injection, schedule: Q01DX009 (ip), vehicle: saline) was 104 % of control and the T/C (dose: 200.0 mg/kg/injection, schedule: Q01DX009 (ip), vehicle: saline) was 101 % of control.

In the case of `CC(C)c1ccc(O)c(O)c1`, the T/C [10] is reported as 113 % of control, the T/C [1] is reported as 113 % of control and the T/C [2] is reported as 111 % of control.

`C[Si](C)(C)Cn1ccc(=O)n(C[Si](C)(C)C)c1=O` was tested, and the T/C [11] was 107 % of control, the T/C [12] was 101 % of control and the T/C [13] was 107 % of control.

`COc1ccc(/C=C/C(C)=N/NC(N)=S)cc1OC` was tested, and the T/C [5] was 104 % of control, the T/C [6] was 106 % of control and the T/C [11] was 105 % of control and 112 % of control. For the same molecule, the T/C [12] was 93 % of control.

In the case of `C=C(C)C1CCC2(C)C1CCC1(C)C2CCC2C3(C)C4OC(OC4=O)C(C)(C)C3CCC21C` (stereo not given), the T/C (dose: 25.0 mg/kg/injection, schedule: Q01DX005 (ip), vehicle: DMSO) is reported as 98 % of control, the T/C (dose: 50.0 mg/kg/injection, schedule: Q01DX005 (ip), vehicle: DMSO) is reported as 100 % of control and the T/C (dose: 100.0 mg/kg/injection, schedule: Q01DX005 (ip), vehicle: DMSO) is reported as 100 % of control. For the same molecule, the T/C (dose: 200.0 mg/kg/injection, schedule: Q01DX005 (ip), vehicle: DMSO) was 113 % of control and the T/C (dose: 400.0 mg/kg/injection, schedule: Q01DX005 (ip), vehicle: DMSO) was 108 % of control.

With `Nc1nc(Br)c(Br)nc1N` the T/C (dose: 100.0 mg/kg/injection, schedule: Q04DX003 (ip), vehicle: other) was 100 % of control, the T/C (dose: 200.0 mg/kg/injection, schedule: Q04DX003 (ip), vehicle: other) was 100 % of control and the T/C (dose: 400.0 mg/kg/injection, schedule: Q04DX003 (ip), vehicle: other) was 95 % of control.

With `COc1ccc(C(c2cc3c(cc2O)OCO3)N2CCOCC2)cc1OC` (stereo not given) the T/C [7] was 101 % of control, the T/C [8] was 109 % of control and the T/C [9] was 111 % of control.

In the case of `NC(CC(=O)O)CC(=O)O`, the T/C [6] is reported as 93 % of control, the T/C [11] is reported as 95 % of control and the T/C [12] is reported as 98 % of control. For the same molecule, the T/C [13] was 90 % of control and the T/C (dose: 400.0 mg/kg/injection, schedule: Q01DX005 (ip), vehicle: saline with Tween-80) was 89 % of control.

In the case of `O=C1C=C(C2=CC(=O)c3cccc(O)c3C2=O)C(=O)c2c(O)cccc21`, the T/C (dose: 6.25 mg/kg/injection, schedule: Q01DX009 (ip), vehicle: Klucel (hydroxypropylcellulose) (HPC)) is reported as 115 % of control and the T/C (dose: 12.5 mg/kg/injection, schedule: Q01DX009 (ip), vehicle: Klucel (hydroxypropylcellulose) (HPC)) is reported as 115 % of control.

`COc1ccc(CCNC(=O)c2sc3ccccc3c2Cl)cc1OC` was tested, and the T/C [14] was 88 % of control, the T/C [15] was 91 % of control and the T/C [16] was 99 % of control.

For `COC(=O)C1=C(C(=O)OC)P2(c3ccccc3)(c3ccccc3)N(c3ccccc3)C(=Nc3ccccc3)N2C1(c1ccccc1)c1ccccc1`, the T/C [14] was 94 % of control, the T/C [15] was 102 % of control and 96 % of control and the T/C [16] was 100 % of control and 89 % of control.

In the case of `CCCCN(CCCC)CCC(O)c1cc2c(Cl)cc(Cl)cc2c2cc(C(F)(F)F)ccc12` (stereo not given), the T/C [1] is reported as 100 % of control and the T/C [2] is reported as 96 % of control.

With `CCOC(=O)C(Cc1csc2ccc(Cl)cc12)(NC(C)=O)C(=O)OCC` the T/C (dose: 50.0 mg/kg/injection, schedule: Q01DX009 (ip), vehicle: Klucel (hydroxypropylcellulose) (HPC)) was 96 % of control, the T/C (dose: 100.0 mg/kg/injection, schedule: Q01DX009 (ip), vehicle: Klucel (hydroxypropylcellulose) (HPC)) was 96 % of control and the T/C (dose: 200.0 mg/kg/injection, schedule: Q01DX009 (ip), vehicle: Klucel (hydroxypropylcellulose) (HPC)) was 94 % of control.

With `CC(C)NCCCC(=O)O` the T/C (dose: 25.0 mg/kg/injection, schedule: Q01DX009 (ip), vehicle: water) was 101 % of control, the T/C (dose: 50.0 mg/kg/injection, schedule: Q01DX009 (ip), vehicle: water) was 99 % of control and the T/C (dose: 100.0 mg/kg/injection, schedule: Q01DX009 (ip), vehicle: water) was 109 % of control. The T/C (dose: 200.0 mg/kg/injection, schedule: Q01DX009 (ip), vehicle: water) was 96 % of control and the T/C (dose: 400.0 mg/kg/injection, schedule: Q01DX009 (ip), vehicle: water) was 90 % of control.

With `CNCCC1CCCCC1` the T/C [14] was 110 % of control.
